These results are taken from paper PMC2897236 (Anesthesia and analgesia, 2009).

Entries after “also recorded” stand apart in the source; their conditions may differ. Like-named read-outs stand apart in the source and are kept apart here.

In one experiment the test system is GABAA receptors. To be noted: modulation of GABAA receptors; cited from earlier work.
The conditions of experiment [1]: cited from earlier work.
The next experiment concerns α4β2 nACh receptors. To be noted: nitrous oxide at 0.6 atm; cited from earlier work.
The target of the next experiment is T1, GLIC (Gloeobacter violaceus, UniProt Q7NDN8).
T1 sequence (Q7NDN8 44-359): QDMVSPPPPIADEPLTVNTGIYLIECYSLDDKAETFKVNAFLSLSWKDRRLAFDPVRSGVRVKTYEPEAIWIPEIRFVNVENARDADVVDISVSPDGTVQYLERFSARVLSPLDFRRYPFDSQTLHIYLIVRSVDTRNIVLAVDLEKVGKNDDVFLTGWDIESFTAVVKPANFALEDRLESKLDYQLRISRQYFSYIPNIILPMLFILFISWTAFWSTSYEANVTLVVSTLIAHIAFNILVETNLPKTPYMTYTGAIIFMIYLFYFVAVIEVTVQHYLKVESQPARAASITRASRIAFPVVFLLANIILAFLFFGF
The settings on record: for modulation of GLIC: at anesthetizing concentrations; for Hill Coefficient: Hill (one-site) fit of inhibition of GLIC currents, mean ± se.

Another experiment deals with GABA receptors. The settings on record: nitrous oxide at 0.6 atm; cited from earlier work.
Another experiment deals with α4β4 nACh receptors. To be noted: nitrous oxide at 0.6 atm; cited from earlier work.
The next experiment concerns glycine receptors. The settings on record: cited from earlier work.
The subject of the next experiment is 5HT3 receptors. The settings on record: cited from earlier work.
The target in experiment [2] is α2 β4 neuronal nicotinic acetylcholine receptors. To be noted: cited from earlier work.
In experiment [3] the target is α3 β4 neuronal nicotinic acetylcholine receptors. The settings on record: cited from earlier work.
Another experiment concerns α4 β2 nACh receptors. The settings on record: inhibition; cited from earlier work.
Experiment [4] has as its target α4β2 neuronal nicotinic acetylcholine receptors. To be noted: cited from earlier work.
For experiment [5] the following is noted: read-out: Anesthetic EC50; anesthetizing concentration in animals; cited from earlier work.
A further experiment addresses glycine α1 receptors. To be noted: enhancement of glycine currents; cited from earlier work.
For the next experiment, the target named is glycine α1 β receptors. To be noted: enhancement of glycine currents; cited from earlier work.
A further experiment concerns 5HT3A receptors. To be noted: 1 MAC of halothane; cited from earlier work.
Experiment [6] concerns GABAA receptors containing a δ subunit. The settings on record: cited from earlier work.
The test system of the next experiment is homomeric α7 receptors. To be noted: 25–50 mM ethanol, response is variable; cited from earlier work.
In experiment [7] the test system is α4β4 neuronal nicotinic acetylcholine receptors. The settings on record: 75mM ethanol; cited from earlier work.
Experiment [8] has as its system α3β2 neuronal nicotinic acetylcholine receptors. The settings on record: cited from earlier work.
For experiment [9], the system named is α2β2 neuronal nicotinic acetylcholine receptors. The settings on record: 75mM ethanol; cited from earlier work.
The mark [10] stands for this setting: IC50_1, two-site model, apparent affinity for site 1.
The mark [11] stands for this setting: IC50_2, two-site model, apparent affinity for site 2.

On to `CCOC(=O)c1cncn1[C@H](C)c1ccccc1` (single isomer, unassigned) [R isomer], for which, in the experiment on GABAA receptors, the Hill Coefficient is on record as 1.9.

For the compound `[N-]=[N+]=O` [Nitrous Oxide], the “Anesthetic EC50” value in experiment [1] (MAC in humans) was 1.04 atm ([7]). The inhibition (commonly how much of the control response was suppressed) is recorded as 39% in the experiment on α4β2 nACh receptors, 7% in the experiment with α4β4 nACh receptors and “approximately 15%” with 5HT3 receptors (nitrous oxide at 0.6 atm). Besides, the “modulation of GLIC” value at GLIC is “did not modulate GLIC”. In the experiment with GABA receptors, the “potentiation of GABA receptor function” value is reported as about 20%. In addition, the “potentiation of glycine receptor function” value in the experiment on glycine receptors (nitrous oxide at 0.6 atm) is “approximately 30%”.

As to `CCOC(=O)c1cncn1[C@@H](C)c1ccccc1` (single isomer, unassigned) [S isomer], the Hill Coefficient with GABAA receptors is given as 2.9.

With `FC(F)OC(Cl)C(F)(F)F` (stereo not drawn) [Isoflurane], the IC50 – broadly, the concentration at which inhibition is half-maximal – in experiment [2] (α2 β4 isoform) was 25 µM; in experiment [3] (α3 β4 isoform), 56 µM; on α4 β2 nACh receptors, 85 µM; in experiment [4] (α4β2 isoform), 82 µM. In the experiment on α4 β2 nACh receptors, the Hill number is 1.3. Besides, the “concentration at which inhibition of GLIC was produced” value (shortened to “concentration at which inhibition”) on GLIC is on record as 1 % of MAC. The “effect on currents through GLIC (current tracing)” value (shortened to “effect on currents through GLIC”) at GLIC (0.3 mM isoflurane) is “inhibit currents through GLIC”. For the same compound, the “Hill Coefficient” value is 0.32 ± 0.07 at GLIC and 0.32 on GLIC (listed as isoflurane). The EC50 (as a rule, the midpoint of the concentration-response curve) in [5] was 280 µM. Further, the “potentiation of 5HT3 receptor function” value with 5HT3 receptors (anesthetic concentration raised to 10 MAC) is over 100%. In addition, the “enhancement of 5HT3 receptor function” value in the experiment on 5HT3 receptors (at MAC) was “less than 50%”.

Consider `CC(C)c1cccc(C(C)C)c1O` [Propofol], for which the Hill number in the experiment on α4 β2 nACh receptors is recorded as 2.9. The IC50 at α4 β2 nACh receptors is 19 µM. Besides, the “lowest concentration inhibiting currents” value on GLIC is listed as 2 % of its anesthetic EC50. Besides, the “effect on currents through GLIC” value on GLIC (1 μM propofol) was “inhibit currents through GLIC”. Besides, the entries for the “Hill Coefficient” value on GLIC and at GLIC (listed as propofol) were 0.42 ± 0.08 and 0.42, respectively. In addition, the EC50 on glycine α1 receptors is 16 µM; on glycine α1 β receptors, 27 µM; in experiment [5], 1.9 µM.

In the case of `[Xe]` [Xenon], the “Anesthetic EC50” value in experiment [1] (MAC of xenon in humans) was 0.71 atm ([5]). On GLIC (0.8 atm xenon), the “effect on GLIC currents” value is “significantly inhibited currents”. The “effect on currents through GLIC” value on GLIC (80 % atm xenon) is recorded as “inhibit currents through GLIC”. Further, the “Hill Coefficient” value at GLIC was 1.9 ± 0.47; at GLIC (listed as xenon), “not different from 1; also recorded: not significantly different than 1”.

Turning to `FC(F)OC(F)C(F)(F)F` (stereo not drawn) [Desflurane], on GLIC, the “concentration at which inhibition” value was 0.01 % of MAC. In addition, the “effect on currents through GLIC” value on GLIC (0.5 mM desflurane) is “inhibit currents through GLIC”. For the same compound, the entries for the “Hill Coefficient” value on GLIC and on GLIC (listed as desflurane) were 0.25 ± 0.05 and 0.25, respectively. Also, the results for the IC50 at GLIC (setting [10]) and on GLIC (setting [11]) were 0.01 µM and 300 µM, respectively. The EC50 in experiment [5] was 560 µM.

With `CCOC(=O)c1cncn1[C@H](C)c1ccccc1` [Etomidate], at GLIC, the “effect on GLIC currents relative to anesthetic concentrations” value is listed as “inhibitory only at concentrations above those used to achieve anesthesia” and the “Hill Coefficient” value is listed as “not different from 1”. Moreover, the “effect on currents through GLIC” value on GLIC (50 μM etomidate) is reported as “inhibit currents through GLIC”. Also, in the experiment with glycine receptors (300μM etomidate), the “potentiation of currents through glycine receptors” value is on record as 29%.

On to `FC(F)(F)C(Cl)Br` (stereo not drawn) [Halothane], for which the “concentration at which inhibition” value on GLIC is reported as 1 % of MAC. The “effect on currents through GLIC” value on GLIC (0.25 mM halothane) was “inhibit currents through GLIC”. In addition, the figures for the “Hill Coefficient” value on GLIC and on GLIC (listed as halothane) were 0.27 ± 0.04 and 0.27, respectively. For the same compound, the IC50 on GLIC (setting [10]) was determined as 0.3 µM; on GLIC (setting [11]) it was 1100 µM. For the same compound, the “potentiation of 5HT3A receptors” value in the experiment with 5HT3A receptors was “approximately 200%”. Also, in experiment [5], the EC50 is 230 µM.

In the case of `CCO` [Ethanol], the effect on currents entry in experiment [2] (75mM ethanol), in [4] (75mM ethanol), in experiment [7] and in experiment [9] was “potentiates currents” throughout. The sensitivity to ethanol result in experiment [3] and in experiment [8] was “not sensitive to ethanol” in each case. Moreover, the lowest potentiating concentration in [6] is 3 mM. Further, the “effect on GLIC currents” value at GLIC (200 mM ethanol compared to controls (p > 0.05)) is reported as “no effect”; at GLIC (200 mM ethanol compared to controls (p > 0.05), listed as ethanol) it was “did not modulate channel currents”. Besides, the “modulation of GLIC” value on GLIC is reported as “did not modulate GLIC”. Besides, in the experiment on homomeric α7 receptors, the effect on receptors result is on record as “inhibits”. Further, in the experiment on 5HT3 receptors (ethanol 50 to 200 mM), the “maximal increase in currents” value was at most 50%.

As to `FCOC(C(F)(F)F)C(F)(F)F` [Sevoflurane], at GLIC, the “concentration at which inhibition” value was 1 % of MAC and the “Hill Coefficient” value worked out at 0.27 ± 0.1. Moreover, at GLIC (0.3 mM sevoflurane), the “effect on currents through GLIC” value is recorded as “inhibit currents through GLIC”. Also, the “Hill Coefficient” value on GLIC (listed as sevoflurane) is 0.27. For the same compound, the EC50 in [5] is 330 µM. The “effect on currents through 5HT3 receptors” value in the experiment with 5HT3 receptors (at MAC) is given as “inhibiting rather than enhancing currents”.
